Test results as given in patent publication US20230159511A1, “TETRAHYDROISOQUINOLINE COMPOUNDS AS NRF2 ACTIVATORS” (C4X Discovery Limited, priority 2020, published 2023).
pIC50: −log10 of the molar value.

What follows are compounds tested against T1, human KEAP1 (N-term, residues 321-609) (Homo sapiens, UniProt Q14145) (assay: KEAP1 Kelch Fluorescence Polarization (FP) Assay). Conditions: inhibition of Kelch domain-NRF2 interaction; 2 nM FITC-labelled NRF2 peptide, 25 nM KEAP1, 1 h room temperature; compounds below 10 nM cannot be differentiated.
T1 construct: human KEAP1 (N-term, residues 321-609)
T1 sequence (Q14145 321-609): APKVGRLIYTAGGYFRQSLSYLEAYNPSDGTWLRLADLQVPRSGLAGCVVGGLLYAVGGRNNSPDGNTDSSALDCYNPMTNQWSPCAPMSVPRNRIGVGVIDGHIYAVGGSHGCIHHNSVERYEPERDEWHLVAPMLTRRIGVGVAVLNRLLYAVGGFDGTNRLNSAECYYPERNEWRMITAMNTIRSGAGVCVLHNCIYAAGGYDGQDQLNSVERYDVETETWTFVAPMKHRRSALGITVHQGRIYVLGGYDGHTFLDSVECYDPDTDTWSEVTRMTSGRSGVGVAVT
Type: binding
Procedure: KEAP1 Kelch Fluorescence Polarization (FP) Assay Method
Inhibition of the Kelch domain-NRF2 interaction was determined using a fluorescence polarization-based competition assay in a black 384-well microplate. Compounds were tested at a starting concentration of 10 μM serially diluted 1:3 to generate a 12-point dose response curve on the Biomek FX robot. Each well contained 2 nM FITC-labelled NRF2 peptide (FITC-LDEETGEFL-NH2) and 25 nM human KEAP1 (N-term, residues 321-609) enzyme in a final volume of 20 μL of assay buffer (50 mM Tris-HCl pH 8.0, 100 mM NaCl, 5 mM MgCl2, 0.005% Tween-20, 0.005% BSA, 0.5% DMSO) in the presence of varying concentrations of test compound. Unlabelled peptide (LDEETGEFL-NH2) at 50 μM (negative control) and 0.5% DMSO (positive control) was used to determine the assay window.
After 1 h at room temperature, fluorescence polarization (excitation 470 nm/emission 530 nm) was measured using an Envision plate reader. IC50 values were determined by fitting the data to a four parameter logistic fit using XLfit or XE Runner within ActivityBase. The assay limit is such that compounds below 10 nM cannot be differentiated.

| pIC50 | Compound |
| --- | --- |
| 5.27 | CCC(=O)NC[C@@H]1c2c(cccc2O[C@H]2CCN(C(=O)c3cncs3)C2)CCN1C(=O)[C@@H]1CCCC[C@@H]1C(=O)NC [Example 47, (1S,2R)-N-methyl-2-((S)-1-(propionamidomethyl)-8-(((S)-1-(thiazole-5-carbonyl)pyrrolidin-3-yl)oxy)-1,2,3,4-tetrahydroisoquinoline-2-carbonyl)cyclohexane-1-carboxamide] |
| 6.53 | CNC(=O)C[C@@H](C)C(=O)N1CCc2cccc(O[C@H]3CCN(C(=O)c4cncs4)C3)c2[C@H]1CN1C(=O)c2ccccc2C1=O [Example 25, (R)-4-((S)-1-((1,3-dioxoisoindolin-2-yl)methyl)-8-(((S)-1-(thiazole-5-carbonyl)pyrrolidin-3-yl)oxy)-3,4-dihydroisoquinolin-2(1H)-yl)-N,3-dimethyl-4-oxobutanamide] |
| 6.14 | CNC(=O)[C@H]1CCCCN1C(=O)N1CCc2cccc(O[C@H]3CCN(C(=O)c4cncs4)C3)c2[C@H]1CN1C(=O)c2ccccc2C1=O [Example 48] |
| 6.90 | CNC(=O)N[C@@H](C)C(=O)N1CCc2cccc(O[C@H]3CCN(C(=O)c4cncs4)C3)c2[C@H]1CN1C(=O)c2ccccc2C1=O [Example 36, 1-((S)-1-((S)-1-((1,3-dioxoisoindolin-2-yl)methyl)-8-(((S)-1-(thiazole-5-carbonyl)pyrrolidin-3-yl)oxy)-3,4-dihydroisoquinolin-2(1H)-yl)-1-oxopropan-2-yl)-3-methylurea] |
| 5.82 | N#CCNC(=O)[C@H]1CCCC[C@H]1C(=O)N1CCc2cccc(O[C@H]3CCN(C(=O)c4cncs4)C3)c2[C@H]1CN1C(=O)c2ccccc2C1=O [Example 33, (1S,2R)-N-(cyanomethyl)-2-((S)-1-((1,3-dioxoisoindolin-2-yl)methyl)-8-(((S)-1-(thiazole-5-carbonyl)pyrrolidin-3-yl)oxy)-1,2,3,4-tetrahydroisoquinoline-2-carbonyl)cyclohexane-1-carboxamide] |
| 7.21 | CNC(=O)[C@H]1CCCC[C@H]1C(=O)N1CCc2cccc(O[C@H]3CCN(C(=O)c4cncs4)C3)c2[C@H]1CN1CCCC1=O [Example 26, (1S,2R)-N-methyl-2-((S)-1-((2-oxopyrrolidin-1-yl)methyl)-8-(((S)-1-(thiazole-5-carbonyl)pyrrolidin-3-yl)oxy)-1,2,3,4-tetrahydroisoquinoline-2-carbonyl)cyclohexane-1-carboxamide] |
| 7.14 | CNC(=O)[C@H]1CCCC[C@H]1C(=O)N1CCc2c(Br)ccc(O[C@H]3CCN(C(C)=O)C3)c2[C@H]1CN1C(=O)c2ccccc2C1=O [Example 50, (1S,2R)-2-((S)-8-(((S)-1-acetylpyrrolidin-3-yl)oxy)-5-bromo-1-((1,3-dioxoisoindolin-2-yl)methyl)-1,2,3,4-tetrahydroisoquinoline-2-carbonyl)-N-methylcyclohexane-1-carboxamide] |
| 6.25 | CNC(=O)[C@H]1CCCC[C@H]1C(=O)N1CCc2cccc(OCc3cnccn3)c2[C@H]1CN1C(=O)c2ccccc2C1=O [Example 27, (1S,2R)-2-((S)-1-((1,3-dioxoisoindolin-2-yl)methyl)-8-(pyrazin-2-ylmethoxy)-1,2,3,4-tetrahydroisoquinoline-2-carbonyl)-N-methylcyclohexane-1-carboxamide] |
| 6.79 | CNC(=O)[C@H]1CCCC[C@H]1C(=O)N1CCc2cccc(OCCNC(=O)c3noc(C)c3C)c2[C@H]1CN1C(=O)c2ccccc2C1=O [Example 4, N-(2-(((S)-1-((1,3-dioxoisoindolin-2-yl)methyl)-2-((1R,2S)-2-(methylcarbamoyl)cyclo-hexane-1-carbonyl)-1,2,3,4-tetrahydroisoquinolin-8-yl)oxy)ethyl)-4,5-dimethylisoxazole-3-carboxamide] |
| 5.89 | Cc1cc(C(=O)NCCOc2cccc3c2[C@@H](CN2C(=O)c4ccccc4C2=O)N(C(=O)[C@@H]2CCCC[C@@H]2C(=O)N2CC(O)C2)CC3)no1 [Example 8, N-(2-(((S)-1-((1,3-dioxoisoindolin-2-yl)methyl)-2-((1R,2S)-2-(3-hydroxyazetidine-1-carbonyl)cyclohexane-1-carbonyl)-1,2,3,4-tetrahydroisoquinolin-8-yl)oxy)ethyl)-5-methylisoxazole-3-carboxamide] |
| 6.28 | CNC(=O)CCCC(=O)N1CCc2cccc(O[C@H]3CCN(C(=O)c4cncs4)C3)c2[C@H]1CN1C(=O)c2ccccc2C1=O [Example 40, 5-((S)-1-((1,3-dioxoisoindolin-2-yl)methyl)-8-(((S)-1-(thiazole-5-carbonyl)pyrrolidin-3-yl)oxy)-3,4-dihydroisoquinolin-2(1H)-yl)-N-methyl-5-oxopentanamide] |
| 6.74 | CNC(=O)[C@H]1CCCC[C@H]1C(=O)N1CCc2cccc(O[C@H]3CCN(C(=O)c4cncnc4)C3)c2[C@H]1CN1C(=O)c2ccccc2C1=O [Example 14, (1S,2R)-2-((S)-1-((1,3-dioxoisoindolin-2-yl)methyl)-8-(((S)-1-(pyrimidine-5-carbonyl)pyrrolidin-3-yl)oxy)-1,2,3,4-tetrahydroisoquinoline-2-carbonyl)-N-methylcyclohexane-1-carboxamide] |
| 6.92 | CNC(=O)[C@H]1CCCC[C@H]1C(=O)N1CCc2cccc(OCCNC(=O)c3nccs3)c2[C@H]1CN1C(=O)c2ccccc2C1=O [Example 18, N-(2-(((S)-1-((1,3-dioxoisoindolin-2-yl)methyl)-2-((1R,2S)-2-(methylcarbamoyl)cyclo-hexane-1-carbonyl)-1,2,3,4-tetrahydroisoquinolin-8-yl)oxy)ethyl)thiazole-2-carboxamide] |
| 6.73 | O=C(NCCO)[C@H]1CCCC[C@H]1C(=O)N1CCc2cccc(O[C@H]3CCN(C(=O)c4cncs4)C3)c2[C@H]1CN1C(=O)c2ccccc2C1=O [Example 35, (1S,2R)-2-((S)-1-((1,3-dioxoisoindolin-2-yl)methyl)-8-(((S)-1-(thiazole-5-carbonyl)pyrrolidin-3-yl)oxy)-1,2,3,4-tetrahydroisoquinoline-2-carbonyl)-N-(2-hydroxyethyl)cyclohexane-1-carboxamide] |
| 5.09 | CNC(=O)[C@H]1CCCC[C@H]1C(=O)N1CCc2cccc(O[C@H]3CCN(C(=O)c4cncs4)C3)c2[C@H]1CNC(=O)C1CC1 [Example 38, (1S,2R)-2-((S)-1-(cyclopropanecarboxamidomethyl)-8-(((S)-1-(thiazole-5-carbonyl)pyrrolidin-3-yl)oxy)-1,2,3,4-tetrahydroisoquinoline-2-carbonyl)-N-methylcyclohexane-1-carboxamide] |
| 6.22 | CNC(=O)[C@H]1CCCC[C@H]1C(=O)N1CCc2cccc(O[C@H]3CCN(C(=O)c4sc(C)nc4C)C3)c2[C@H]1CN1C(=O)c2ccccc2C1=O [Example 23, (1S,2R)-2-((S)-8-(((S)-1-(2,4-dimethylthiazole-5-carbonyl)pyrrolidin-3-yl)oxy)-1-((1,3-dioxoisoindolin-2-yl)methyl)-1,2,3,4-tetrahydroisoquinoline-2-carbonyl)-N-methylcyclohexane-1-carboxamide] |
| 5.68 | O=C(NCC(F)(F)F)[C@H]1CCCC[C@H]1C(=O)N1CCc2cccc(O[C@H]3CCN(C(=O)c4cncs4)C3)c2[C@H]1CN1C(=O)c2ccccc2C1=O [Example 32, (1S,2R)-2-((S)-1-((1,3-dioxoisoindolin-2-yl)methyl)-8-(((S)-1-(thiazole-5-carbonyl)pyrrolidin-3-yl)oxy)-1,2,3,4-tetrahydroisoquinoline-2-carbonyl)-N-(2,2,2-trifluoroethyl)cyclohexane-1-carboxamide] |
